What all share (assay type): binding
In experiment [1] the target is T1, rNedd4-WW2 (Rattus norvegicus, UniProt Q62940).
T1 construct: GST fusion proteins of the second and third WW domains (WW2 and WW3/4) of rNedd4; GST (N, cleaved yes); made in house; host or cells: E. coli BL21(DE3)
As to the kind of experiment: Isothermal titration calorimetry, rNedd4-WW2. The settings on record: ITC, 25 °C, 10 mM sodium phosphate, pH 7.4; mean of three separate runs ± one SD. The procedure:
(§1) In order to compare the affinities between the U24 proteins and WW domains, the equilibrium dissociation constant (KD) for the interaction between each U24:Nedd4-WW domain pair tested above was determined using ITC. […] ITC experiments using these peptides as titrants were carried out on Nedd4-WW domains in 10 mM sodium phosphate, pH 7.4, at 25 °C. Control experiments in which the phosphate buffer was titrated into the protein solutions were also conducted to ensure the proteins were stable during the titration with peptide.
(§2) Two cDNA clones containing human E3 ubiquitin-protein ligase Nedd4 (KIAA0093) and Nedd4-like protein (KIAA0439) were ordered from Kazusa DNA research institute (Chiba, Japan). The DNA fragment of the third WW domain of both proteins was amplified and inserted into BamHI and XhoI sites of pGEX-4T2 vector (GE Healthcare). […]
(§3) After overnight dialysis, the cleaved Nedd4 WW domains in phosphate buffer, with different salt concentrations, were ready for use in ITC experiments. […] The concentration of the sample was determined by the absorbance at 280 nm in 6 M Guanidine HCl on a UV-Vis spectrophotometer, and calculated using the theoretical extinction coefficient obtained from the ProtParam tool[51]. […] The peptide amounts were determined gravimetrically and calibrated according to the absorbance at 280 nm in 6 M Guanidine HCl. […]
(In general: ITC needs no label: the signal is the heat of the interaction.)

The target of experiment [2] is T2, rNedd4-WW3/4 (Rattus norvegicus, UniProt Q62940).
T2 construct: GST fusion proteins of the second and third WW domains (WW2 and WW3/4) of rNedd4; GST (N, cleaved yes); made in house; host or cells: E. coli BL21(DE3)
T2 sequence (Q62940 459-492 limits assumed): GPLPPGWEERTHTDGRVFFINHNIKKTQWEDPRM
As to the kind of experiment: Isothermal titration calorimetry, rNedd4-WW3/4. The settings on record: ITC, 25 °C, 10 mM sodium phosphate. The procedure: as §1
Importantly, this is the tightest affinity characterized to date between a U24 peptide ligand and WW domains.
In order to find out whether electrostatic interactions play a role in the binding of the three U24 peptides tested here to the Nedd4-WW domains, a set of ITC experiments were performed as a function of increasing salt concentration, 0 mM, 100 mM and 500 mM, in 10 mM sodium phosphate, pH 7.4, at 25 °C, for rNedd4-WW3/4 and hNedd4L-WW3*. Affinities and molar binding enthalpies (ΔH) for each U24:WW-domain pair as a function of salt concentration are plotted in Supplementary Fig. 2 and Fig. 3c and d, respectively.
(§4) Two cDNA clones containing human E3 ubiquitin-protein ligase Nedd4 (KIAA0093) and Nedd4-like protein (KIAA0439) were ordered from Kazusa DNA research institute (Chiba, Japan). The DNA fragment of the third WW domain of both proteins was amplified and inserted into BamHI and XhoI sites of pGEX-4T2 vector (GE Healthcare). The plasmids containing GST fusion proteins of the second and third WW domains (WW2 and WW3/4) of rNedd4 were kind gifts from Dr. Julie D. Forman-Kay (Hospital for Sick Children, Toronto). All plasmids were transformed into E. coli BL21(DE3) for expression at 25 °C for 16 hours using a final concentration of 400 μM IPTG. ^15N labelled protein was expressed in M9 media supplemented with ^15N labelled NH4Cl. The cells were harvested by centrifugation and stored in the −80 °C freezer until further use. The cell paste from approximately 600 mL culture was thawed on ice and resuspended in 10 mL PBS supplemented with 1% Triton X-100 (PBS/Triton buffer). Lysozyme, protease inhibitor and DNAse were added in the mixture. The mixture was incubated on ice for half an hour, then was lysed in an ice bath by sonication. After being centrifuged at 9,000 rpm for 1 hour, the supernatant was filtered using a 0.45 μm filter, and then applied to 2 mL of PBS washed Glutathione Sepharose 4B resin (GE Healthcare, GST 4B resin). The resin slurry with cell lysate was incubated for 2 hours at room temperature, and then washed with PBS/Triton buffer six times. The resin was collected by centrifugation at 600 × g for 5 minutes.
In order to obtain WW domains without the GST tag, the proteins were extracted and immobilized on GST 4B resin as described above. The resin was washed three times with PBS buffer, after the washing with PBS/Triton buffer. 3 mL PBS buffer and 150 units of thrombin (GE Healthcare) were added into the pelleted resin and the slurry was incubated at room temperature for 16 hours. The supernatant containing cleaved WW domains were collected on the second day by centrifugation. The residual thrombin in this fraction was removed using p-Aminobenzamidine-agarose (Sigma-Aldrich) and fresh GST 4B resin was used to remove the GST contaminants. The WW domain containing fraction was dialyzed at 4 °C against 2 L phosphate buffer (10 mM sodium phosphate, pH 7.4) using 2,000 MWCO dialysis membrane overnight for ITC or NMR experiments, or phosphate buffer with various salt concentrations (phosphate buffer with 100 mM or 500 mM NaCl) for ITC experiments.
After overnight dialysis, the cleaved Nedd4 WW domains in phosphate buffer, with different salt concentrations, were ready for use in ITC experiments. The dialysis buffer was kept as a sample-free buffer to measure the heats of dilution. […]

In experiment [3] the target is T3, hNedd4-WW3* (Homo sapiens, UniProt P46934).
T3 construct: The DNA fragment of the third WW domain of both proteins was amplified; GST (N, cleaved yes); made in house; host or cells: E. coli BL21(DE3)
T3 sequence (P46934 840-873 limits assumed): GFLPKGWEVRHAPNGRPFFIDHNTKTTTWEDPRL
As to the kind of experiment: Isothermal titration calorimetry, hNedd4-WW3*. The settings on record: ITC, 25 °C, 10 mM sodium phosphate, pH 7.4; mean of three separate runs ± one SD. As for the experimental part: as §1, §2, §3

Experiment [4] has as its target T4, hNedd4L-WW3* (Homo sapiens, UniProt Q96PU5).
T4 construct: The DNA fragment of the third WW domain of both proteins was amplified; GST (N, cleaved yes); made in house; host or cells: E. coli BL21(DE3)
As to the kind of experiment: Isothermal titration calorimetry, hNedd4L-WW3*. The settings on record: ITC, 25 °C, 10 mM sodium phosphate. The procedure:
as §1
In order to find out whether electrostatic interactions play a role in the binding of the three U24 peptides tested here to the Nedd4-WW domains, a set of ITC experiments were performed as a function of increasing salt concentration, 0 mM, 100 mM and 500 mM, in 10 mM sodium phosphate, pH 7.4, at 25 °C, for rNedd4-WW3/4 and hNedd4L-WW3*.
as §4
In order to obtain WW domains without the GST tag, the proteins were extracted and immobilized on GST 4B resin as described above. The resin was washed three times with PBS buffer, after the washing with PBS/Triton buffer. […]
After overnight dialysis, the cleaved Nedd4 WW domains in phosphate buffer, with different salt concentrations, were ready for use in ITC experiments. […]

The mark [5] stands for this setting: pH 7.4, extra 100 mM NaCl, three runs.
Setting [6] is: pH 7.4, extra 500 mM NaCl, three runs.
Setting [7] is: pH 7.4, mean of three separate runs ± one SD.

No end group written: not given here.

T4 sequence (Q96PU5 497-530 limits assumed): as the sequence (P46934 840-873 limits assumed) above, with G1S, K5P, V9M, H11I counted along it
T1 sequence (Q62940 402-435 limits assumed): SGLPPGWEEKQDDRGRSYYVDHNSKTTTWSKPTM

Broadly, the Kd is the concentration at which binding is half-saturated. Lower therefore signals higher affinity. In the case of MTHETPPPSYNDVML [U24-7], the Kd in experiment [1] came to 87 ± 5 µM; in experiment [2] (setting [5]) it was 14.6 µM; in experiment [2] (setting [6]), 13.2 µM; in experiment [2] (setting [7]), 21 ± 0.5 µM; in experiment [3], 1.98 ± 0.04 µM.

Turning to `CSCC[C@H](N)C(=O)N[C@@H](CC(=O)O)C(=O)N1CCC[C@H]1C(=O)N1CCC[C@H]1C(=O)N[C@@H](CCCNC(=N)N)C(=O)N[C@H](C(=O)N1CCC[C@H]1C(=O)N1CCC[C@H]1C(=O)N1CCC[C@H]1C(=O)N[C@@H](CO)C(=O)N[C@@H](Cc1ccc(O)cc1)C(=O)N[C@@H](CO)C(=O)N[C@@H](CCC(=O)O)C(=O)N[C@H](C(=O)N[C@@H](CC(C)C)C(=O)O)C(C)C)[C@@H](C)OP(=O)(O)O` [pU24-6A], the dissociation constant Kd in experiment [2] (setting [5]) turned out to be 12 µM; in experiment [2] (setting [6]), 9.5 µM.

Consider `CSCC[C@H](N)C(=O)N[C@@H](CC(=O)O)C(=O)N1CCC[C@H]1C(=O)N1CCC[C@H]1C(=O)N[C@@H](CCCNC(=N)N)C(=O)N[C@H](C(=O)N1CCC[C@H]1C(=O)N1CCC[C@H]1C(=O)N1CCC[C@H]1C(=O)N[C@@H](CO)C(=O)N[C@@H](Cc1ccc(O)cc1)C(=O)N[C@@H](CO)C(=O)N[C@@H](CCC(=O)O)C(=O)N[C@H](C(=O)N[C@@H](CC(C)C)C(=O)O)C(C)C)[C@@H](C)O` [U24-6A], for which the Kd in experiment [1] was 155 ± 12 µM; in experiment [2] (setting [5]), 35.7 µM; in experiment [2] (setting [6]), 30.6 µM; in experiment [3], 9.7 ± 0.2 µM; in experiment [4] (setting [5]) it was 6.9 µM; in experiment [4] (setting [6]) it was 6.1 µM. The compound further returned a Kd in experiment [4] (setting [7]) of 6.3 ± 0.3 µM.

As for “IKHEPENPPPYEEAM [Nogo-A, reference compound]”, the Kd in experiment [4] (setting [7]) stood at 4 ± 0.2 µM.
